# According to patent publication US5180720A, “2- and 3-alkoxy or hydroxy-8-substituted-dibenz[b,f]-[1,4]oxazepine-10(11H)-carboxylic acid, substituted hydrazides and methods for treating pain” (G. D. Searle & Co., priority 1991, dated 1993):
# Entries after “also recorded” stand apart in the source; their conditions may differ.
# Key:
# [1] = test system: mice; assay: PBQ Writhing Assay (analgesic activity); format: in vivo, mouse (Charles River male albino mice); details: for PBQ writhing assay, I.G. (activity): 30 mg/kg i.g.; for PBQ writhing assay, S.C. (activity): 30 mg/kg s.c.; for rank order of potency in the Writhing Assay: PBQ writhing
# Text: The Writhing Assay is one of the most widely-used experimental procedures for measuring the analgesic activity of different narcotic and nonnarcotic analgesic agents, and involves the continuous, chemically-induced pain of visceral origin to an animal, such as a mouse or rat. [Gyires et al., Arch. int. Pharmacodyn, 267, 131-140 (1984); C. Vander Wende et al., Fed. Proc., 15, 494 (1956); Koster et al., Fed. Proc., 18, 412 (1959); and Witken et al., J. Pharmacol. exp. Ther., 133, 400-408 (1961).] Chemicals which may be used to induce this pain include phenylbenzoquinone (PBQ) and acetic acid. As a result of the chemical irritation to the animal, a characteristic stretching and writhing of the animal (dorsiflexion of the animal's back, extension of its hindlimbs and the strong contraction of its abdominal musculature) will generally occur. […] Drugs which reduce the number of writhes of the animal appear to restore the normal nociceptive threshold of the animal.
# Charles River male albino mice, weighing 20 to 30 grams were used in this assay.
# Thirty minutes after subcutaneous or intragastric administration to ten mice of 30 mg per kilogram of body weight of a compound of the present invention ("test compound"), […] per 10 g of body weight of a 0.025% w/v solution of PBQ was injected intraperitoneally into each mouse. Ten mice which were given saline in place of a test compound of the invention were used as a control group.
# Five minutes later, each mouse was individually placed into a glass beaker for observation, and the number of writhes occurring during the following ten-minute period was counted.
# A test compound was considered to have produced analgesia in a mouse if, in accordance with the conditions set forth above, and under the test criteria employed for this assay, after the administration of 30 mg per kilogram of body weight of a compound of the present invention to the mouse, the number of writhes elicited by a mouse injected with PBQ was equal to, or less than, one-half the median number of writhes recorded for the saline-treated control group of mice that day, as described by Taber in "Predictive Value of Analgesic Assays in Mice and Rats," Advances in Biochemical Psychopharmacology, 8, 191 (1974).
# The standard initial screening dose of a test compound employed in this assay was 30 mg per kilogram of body weight for both routes of administration. If this initial screening dose of the test compound produced analgesia in seven out of ten mice, then the effect of additional doses of the test compound on the writhing response was evaluated, and then the ED50 dose was generally calculated. (The slopes of the dose-response curves for all test compounds analyzed were compared as described by Tallarida and Murray, Manual of Pharmacologic Calculations, Page 11 (Springer Verlag, N.Y., 1981)).
# [2] = target: T1, prostaglandin E2-induced contractions of segments of guinea pig ileum (Cavia porcellus, UniProt A0A286XHJ6); assay: Prostaglandin (PGE) Antagonism Assay, guinea pig ileum; format: cell-based; parameters: key to PGE antagonism in guinea pig ileum (activity): Active: A concentration of the test compound was determined to be "active" if it produced a dose ratio significantly greater than that obtained in a series of blank treatments
# T1 construct: Segments of ileum about 2 cm long were then cut and mounted in a 10-mL tissue bath; from tissue; host or cells: ileum segments of male albino guinea pigs
# T1 sequence (A0A286XHJ6 1-405): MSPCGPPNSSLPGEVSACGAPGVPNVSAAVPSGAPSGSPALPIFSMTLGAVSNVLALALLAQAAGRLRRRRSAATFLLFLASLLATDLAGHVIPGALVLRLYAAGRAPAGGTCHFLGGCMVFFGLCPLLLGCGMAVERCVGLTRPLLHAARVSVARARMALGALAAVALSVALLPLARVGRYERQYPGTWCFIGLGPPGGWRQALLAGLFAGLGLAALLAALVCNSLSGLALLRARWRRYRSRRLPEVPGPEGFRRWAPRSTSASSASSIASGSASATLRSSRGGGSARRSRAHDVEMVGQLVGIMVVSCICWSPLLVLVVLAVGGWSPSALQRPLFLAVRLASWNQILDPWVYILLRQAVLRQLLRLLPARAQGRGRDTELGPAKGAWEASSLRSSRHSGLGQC
# Procedure: In order to determine the effectiveness of compounds of the invention ("test compounds") as prostaglandin E2 antagonists, a prostaglandin antagonism assay was conducted, as described below, to determine the ability of these compounds to inhibit prostaglandin E2 -induced contractions of segments of guinea pig ileum.
# Male albino guinea pigs weighing 200 to 500 grams were sacrificed by cervical dislocation.
# The ileums were then quickly removed from the guinea pigs and placed in a modified Tyrode solution, a solution which is known to those of skill in the art, containing one-half of the usual amount of magnesium ions.
# Segments of ileum about 2 cm long were then cut and mounted in a 10-mL tissue bath containing the modified Tyrode solution. The solution was maintained at 37° C. and aerated with a gaseous mixture of 95% oxygen and 5% carbon dioxide.
# Submaximal contractions of the ileum segments were then generated by injecting prostaglandin E2 into the bath, and detected isotonically. Data for a control prostaglandin E2 dose response curve plotting concentration of prostaglandin E2 versus number of contractions generated was then obtained by experimentally adjusting the dose of the prostaglandin E2 being injected into the tissue bath, in a manner known by those of skill in the art.
# Solutions or suspensions containing an initial amount of a test compound in modified Tyrode solution ("test solutions/ suspensions") were then separately substituted for the tissue bath. […]
# If the initial concentration of a test compound was determined to be "active," then varying concentrations of the test compound were then assayed.
# The pA2 value (a statistical constant which is a common measure of expressing the potency of a particular drug as a competitive antagonist) was then calculated for the test compound by schild plot calculations, as described by H.O. Schild, "pA, A New Scale for the Measurement of Drug Antagonism," Br. J. Pharmacol, 2, 189 (1947), according to the following mathematical formula: […]
# to quantitate the effectiveness of the test compound as a prostaglandin E2 antagonist.
# [3] = test system: stimulant actions of prostaglandins on isolated smooth muscle preparations; details: cited from earlier work
# [4] = test system: micturition reflex in rats; details: urethane-anesthetized rats; cited from earlier work
# [5] = test system: prostaglandins of the E series; details: cited from earlier work
structure (smiles),measurement,setting,value
"CCS(=O)(=O)CCC(=O)NNC(=O)N1Cc2cc(O)ccc2Oc2ccc(Cl)cc21 [Example 4, 8-chloro-2-hydroxydibenz[b,f][1,4]oxazepine-10(11H)-carboxylic acid, 2-[3-(ethylsulfonyl)-1-oxopropyl]hydrazide]","PBQ writhing assay, I.G. (activity)",[1],Active
same,"PBQ writhing assay, S.C. (activity)",[1],Active
same,ED50,"[1]; Mus musculus, po, 0.5 h, intragastric, read-out: PBQ writhing assay ED50, I.G.",12.6 mg/kg
same,rank order of potency in the Writhing Assay,[1],Example 4>Example 8>Example 7>Example 3; also recorded: the most potent compound of the invention tested in this assay
same,"activity as prostaglandin E2 antagonist, in words",[2]; guinea pig ileum,exhibits activity as a prostaglandin E2 antagonist
same,PGE antagonism in guinea pig ileum (activity),"[2]; guinea pig ileum segments, 37° C.",Active
same,Kb,"[2]; guinea pig ileum segments, 37° C., Schild plot, read-out: PGE antagonism in guinea pig ileum (pA2) (converted)",3.98 µM
"CCS(=O)(=O)CCC(=O)NNC(=O)N1Cc2cc(OC)ccc2Oc2ccc(Cl)cc21 [Example 3, 8-chloro-2-methoxydibenz[b,f][1,4]oxazepine-10(11H)-carboxylic acid, 2-[3-(ethylsulfonyl)-1-oxopropyl]hydrazide]",rank order of potency in the Writhing Assay,[1],Example 4>Example 8>Example 7>Example 3
CC(=O)NNC(=O)N1Cc2ccccc2Oc2ccc(Cl)cc21 [SC-19220],inhibition of stimulant actions of prostaglandins,[3],inhibit the stimulant actions of prostaglandins on isolated smooth muscle preparations
same,bladder capacity,[4],increased the bladder capacity
same,voiding efficiency of micturition,[4],reduced the voiding efficiency of micturition
"CC(=O)NNC(=O)N1Cc2ccccc2Oc2ccc(Cl)cc21 [8-chlorodibenz[b,f][1,4]-oxazepine-10(11H-carboxylic acid, 2-acetylhydrazide]",antagonism of prostaglandins of the E series,[5],competitive antagonists of prostaglandins of the E series
"CCS(=O)(=O)CCC(=O)NNC(=O)N1Cc2ccc(OC)cc2Oc2ccc(Cl)cc21 [Example 7, 8-chloro-3-methoxydibenz[b,f][1,4]oxazepine-10(11H)-carboxylic acid, 2-[3-(ethylsulfonyl)-1-oxopropyl]hydrazide]","PBQ writhing assay, I.G. (activity)",[1],Active
same,rank order of potency in the Writhing Assay,[1],Example 4>Example 8>Example 7>Example 3
CCS(=O)(=O)CCC(=O)NNC(=O)N1Cc2ccc(O)cc2Oc2ccc(Cl)cc21 [Example 8],"PBQ writhing assay, I.G. (activity)",[1],Active
same,"PBQ writhing assay, S.C. (activity)",[1],Active
same,rank order of potency in the Writhing Assay,[1],Example 4>Example 8>Example 7>Example 3
O=C(Cc1ccccc1)NNC(=O)N1Cc2ccccc2Oc2ccc(Cl)cc21 [SC-18637],inhibition of stimulant actions of prostaglandins,[3],inhibit the stimulant actions of prostaglandins on isolated smooth muscle preparations
"O=C(CCCCCl)NNC(=O)N1Cc2ccccc2Oc2ccc(Cl)cc21 [8-chlorodibenz[b,f][1,4]-oxazepine-10(11H)-carboxylic acid, 2-(5-chloro-1-oxopentyl)hydrazide]",antagonism of prostaglandins of the E series,[5],competitive antagonists of prostaglandins of the E series
